We go through two compounds from patent USRE44599E1, “Quinazolinones as inhibitors of human phosphatidylinositol 3-kinase delta” (ICOS Corporation, priority 2004, dated 2013).

Test [1] has as its system neutrophil. Particulars: cited from earlier work.
For test [2], the system named is neutrophil. Particulars: cited from earlier work. This is another data set of the same source.
Test [3] relates to osteoclasts. Description: Osteoclast function (pit depths on dentine slices). The test is classed as cell-based, mouse. The settings on record: PI3K inhibitors 100 nM, 72 hr. As for the experimental part: To analyze the effect of the present PI3Kδ inhibitor compounds on osteoclasts, mouse bone marrow cells are isolated and differentiated to osteoclasts by treating the cells with Macrophage Colony Stimulating Factor^−1 (mCSF^−1) and Osteoprotegerin Ligand (OPGL) in serum-containing medium (αMEM with 10% heat-inactivated FBS; Sigma) for 3 days. On day four, when the osteoclasts had developed, the medium is removed and cells are harvested. The osteoclasts are plated on dentine slices at 10^5 cells/well in growth medium, i.e., αMEM containing 1% serum and 2% BSA with […] OPGL and 10 ng/mL mCSF^−1. After 3 hr, the medium is changed to 1% serum and 1% BSA, with or without osteopontin (25 μg/mL) and the PI3K inhibitors (100 nM). The medium is changed every 24 hours with fresh osteopontin and the inhibitors. At 72 hr, the medium is removed, and the dentine surfaces are washed with water to remove cell debris and stained with acid hematoxylin. Excess stain is washed and the pit depths are quantitated using confocal microscopy.

For test [4], the system named is Class I PI 3-kinases. Particulars: read-out: IC50 against each of the various Class I PI 3-kinases; cited from earlier work.

pIC50: −log10 of the molar value.

With `O=c1cc(N2CCOCC2)oc2c(-c3ccccc3)cccc12` [LY294002], the neutrophil migration entry in test [1] is reported as “block neutrophil migration”. For the same compound, the superoxide release result in test [2] was “block neutrophil migration and superoxide release”. In addition, the osteoclast activity result in test [3] is listed as “inhibited osteoclast activity”.
Regarding `COC[C@H]1OC(=O)c2coc3c2[C@@]1(C)C1=C(C3=O)[C@@H]2CCC(=O)[C@@]2(C)C[C@H]1OC(C)=O` [wortmannin], in test [1], the neutrophil migration result is listed as “block neutrophil migration”. Further, in test [2], the superoxide release entry is “block neutrophil migration and superoxide release”. Moreover, the pIC50 in test [4] was 8.00 to 9.00. Also, the osteoclast activity entry in test [3] is given as “inhibited osteoclast activity”.

The term pIC50 denotes −log10 of the IC50, conventionally taken in molar units.
